Source: PubChem BioAssay (NCI)
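Cells were grown in 96-well plates and exposed to each compound for 48 hours at five concentrations; endpoints were interpolated linearly between bracketing concentrations, or set to the highest concentration if not reached. Abbreviation: GI50, concentration required for 50% inhibition of growth. The concentration for full growth arrest is given as TGI.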

Experiments:
Experiment in all cases: DTP human tumour cell line panel, 48 h
[1] = test system: SN12C renal
[2] = test system: NCI-H226 lung
[3] = test system: SR leukemia
[4] = test system: TK-10 renal
[5] = test system: T-47D breast
[6] = test system: SK-MEL-28 melanoma
[7] = test system: NCI-H522 lung
[8] = test system: MALME-3M melanoma
[9] = test system: NCI/ADR-RES ovarian
[10] = test system: EKVX NSCLC

SMILES | GI50 [1] [µM] | TGI [1] [µM] | GI50 [2] [µM] | TGI [2] [µM] | GI50 [3] [µM] | TGI [3] [µM] | GI50 [4] [µM] | TGI [4] [µM] | GI50 [5] [µM] | TGI [5] [µM] | GI50 [6] [µM] | TGI [6] [µM] | GI50 [7] [µM] | TGI [7] [µM] | GI50 [8] [µM] | TGI [8] [µM] | GI50 [9] [µM] | TGI [9] [µM] | GI50 [10] [µM] | TGI [10] [µM]
Cc1ccc(O)c(NC(=O)c2cccc(Nc3ccnc(C(F)(F)F)c3)c2)c1 | 5.81 | 37.3 | 0.894 | 23.4 | 1.02 | 16.4 | 19.1 | 73.5 | 2.29 | 24 | 16 | 31.2 | 1.23 | 5.84 | 19.2 | 78.5 | 3 | 32.4 | 3.37 | 59.4
C=CN(C(=O)N1CCN(c2cc3c(cc2F)c(=O)c(C(=O)O)cn3C2CC2)CC1)c1nc(-c2ccc(OC)cc2)cs1 | 3.14 | > 100 | 2.9 | > 100 | 2.69 | > 100 | 5.23 | 23.7 | 3.12 | > 100 | 4.26 | > 100 | 2.67 | 6.95 | 4.11 | > 100 | 3.07 | 9.07 | 4.12 | > 100
COc1cc2c(cc1OC(C)C)[C@H](c1ccc(Cl)cc1)N(c1ccc(N(C)CC3CCC(N4CCN(C)C(=O)C4)CC3)cc1)C(=O)C2 (some centres undefined) | 2.95 | 9.15 | 0.311 | 1.7 | 0.123 | 1.97 | 3.63 | 9.34 | 2.62 | 11.8 | 2 | 4.29 | 3.9 | 10.4 | 0.09 | 2.74 | 3.18 | 14.7 | 1.93 | 7.81
OCC1C(OCc2ccccc2)C(OCc2ccccc2)C(OCc2ccccc2)CN1Cc1ccccc1 (centres undefined) |  | 39.6 |  | > 100 |  | > 100 |  | > 100 |  | > 100 |  | > 100 |  | > 100 |  | 91.5 |  | > 100 |  | > 100
CNC(=O)c1c(C)oc2cc(Oc3ncnc4cc(OC)c(OC)cc34)ccc12 | > 100 | > 100 | 2.47 | > 100 | > 100 | > 100 | > 100 | > 100 | > 100 | > 100 | > 100 | > 100 | > 100 | > 100 | > 100 | > 100 | > 100 | > 100 | > 100 | > 100
Cc1c(-c2cnccn2)ssc1=S |  | > 100 |  | > 100 |  | > 100 |  | 98.7 |  | > 100 |  | > 100 |  | > 89.8 |  | > 100 |  | > 100 |  | 90.9
O=c1oc2ccc(I)cc2c(=O)n1-c1ccc(Br)cc1F | 0.546 | 5.7 | 1.27 | 4.39 | 0.605 | > 34.1 | 3.81 | 10.2 | 0.856 | 6.7 | 0.404 | 2.03 | 0.396 | 4.85 | 0.462 | 2.55 | 0.798 | 6.09 | 1.34 | 7.11
CCc1nc(N)nc(N)c1-c1ccc(Cl)c([N+](=O)[O-])c1 |  | > 100 |  | > 100 |  | > 26.5 |  | > 100 |  | > 100 |  | > 100 |  | > 100 |  | > 100 |  | > 100 |  | > 100
COc1ccc2c(c1)C(=O)c1c-2n(CCCN(C)C)c(=O)c2ccccc12 | 0.255 | 5.7 | 0.413 | 2.59 |  | 11.3 | 0.722 | 9.32 | 0.309 | 3.56 | 1.77 | 8.12 | 0.188 | 4.04 | 0.483 | 2.06 | 0.349 | 9.66 | 0.645 | 8.45
CCc1cccc(C(C)C)c1NC(=O)C(=O)C1C(=O)Nc2ccccc2S1=O (centres undefined) |  | > 100 |  | > 100 |  | > 100 |  | > 100 |  | > 100 |  | > 100 |  | > 100 |  | > 100 |  | > 100 |  | > 100
COc1ccc(/C=C\c2cc(OC)c(OC)c(OC)c2)cc1OCC(=O)Nc1nc2ccc(F)cc2s1 | 4.61 | > 100 | 5.6 | > 100 | 2.19 | > 100 | 9.89 | > 100 | 3.39 | 68.5 | > 100 | > 100 | 2.92 | > 100 | 5.22 | > 100 | 2.55 | > 100 | 5.72 | > 100
O=c1c2ccccc2sc2c(NCCCNCCO)nc3ccccc3c12 | 1.47 | 3.24 | 1.41 | 2.95 | 1.6 | 4.55 | 1.91 | 3.38 | 1.99 | 4.38 | 1.81 | 3.52 | 1.82 | 3.57 | 1.58 | 3.3 | 1.86 | 4.56 | 1.67 | 4.58
O=C(O)CCNCC(=O)O |  | > 100 |  | > 100 |  | > 100 |  | > 100 |  | > 100 |  | > 100 |  | > 100 |  | > 100 |  | > 100 |  | > 100
CCOC(=O)C1=CCCC[C@H]1S(=O)(=O)Nc1ccc(F)cc1Cl | 24.5 | 94.5 | 26.7 | > 100 | 23.9 | > 100 | 33 | > 100 | 16.6 | > 100 | 28 | > 100 | 23.1 | 90.1 | 24.4 | 85.2 | 33.9 | > 100 | 26.8 | > 100
COc1ccc(C2(Cl)c3ccccc3N(c3ccccc3)c3ccccc32)cc1 | 0.232 | 1.22 | 1.01 | 3.55 | 0.357 | 3.28 | 0.516 | 3.21 | 0.288 | 5.38 | 0.222 | 1.49 | 0.444 | 2.94 | 0.298 | 1.66 | 2.05 | 10.5 | 0.25 | 2.9
